Measurements as given in US12077557B2, “Puromycin-based probes and methods of use thereof” (The Regents of the University of California, priority 2018, dated 2024).

Tests used:
[1] = test system: HeLa cells; test: Immunostaining and confocal fluorescence imaging of HeLa cells treated with puromycin-based probes; type: cell-based, human; details: for change in fluorescence intensity with H2O2 pretreatment: H2O2 50 μM 2 h pretreatment; for change of immunofluorescence intensity with incubation time: basal analyte level; for change in immunofluorescence intensity with cysteine or GSH incubation: 1 μM compound and cysteine or GSH 100 μM, 4 h; for change in fluorescence intensity with paraquat co-incubation: 1 μM compound, paraquat 1 mM; for green immunofluorescence at 0.5 h: basal
[2] = test system: A431 cells; test: Immunostaining and confocal imaging of A431 cells with stimulation or inhibition of H2O2 or NO production; type: cell-based, human; details: for change in fluorescence intensity with EGF stimulation: EGF 100 ng/mL 20, 40, 60 min, then 1 μM compound 4 h
Text: Human cervical epithelial carcinoma (HeLa), human epidermoid carcinoma (A-431) and human breast carcinoma (MDA-MB-231 and MDA-MB-468) were maintained in DMEM medium (high glucose) supplemented with GlutaMAX and 10 vol % FBS. Human breast carcinoma (MCF-7) was maintained in DMEM medium (high glucose) supplemented with GlutaMAX, 10 vol % FBS, 1 vol % non-essential amino acids and 1% sodium pyruvate. Human breast carcinoma (HS 578T) was maintained in DMEM medium (high glucose) supplemented with GlutaMAX, 10 vol % FBS, 1% sodium pyruvate and insulin (10 μg/mL). Human non-tumorigenic breast epithelial cells (MCF-10A) were maintained in DMEM/F12 (with L-glutamate, HEPES and phenol red) supplemented with 5 vol % horse serum, EGF (20 ng/mL), hydrocortisone ([…]), cholera toxin (100 ng/mL), insulin (10 μg/mL) and 1 vol % penicillin/streptomycin. Human normal breast epithelial cells (HS 578Bst) were maintained in ATCC Hybri-Care Medium (No. 46-X) supplemented with sodium bicarbonate ([…]), EGF (30 ng/mL) and 10 vol % FBS. All cells were incubated in 5% CO2 humidified air, and subcultured when 80% confluence was reached. For cell-imaging experiments, the cells were plated on 8-well Lab Tek borosilicate chambered coverglass slides (Nunc) or 24-well plates with 12 mm coverslips, and allowed to grow to ca. 60% confluency before performing the cell imaging experiments.
Cells were incubated with the compound (1 μM) for indicated time intervals. The cells were then washed three-times by PBS solution and fixed by 4% paraformaldehyde at room temperature for 10 min. The cells were washed by PBS solution and PBS solution with 0.1 vol %-Triton X-100, followed by incubation with α-puromycin antibody [3RH11] (Kerafast; 1:500, v/v) in PBS solution containing 10 vol % FBS and 0.1 vol % Triton X-100 at 37° C. for 30 min. Subsequently, the cells were washed by PBS solution and PBS solution with 0.1 vol %-Triton X-100, and stained by α-mouse secondary antibody-Alexa Fluor 488 (1:100, v/v) in PBS solution containing 10 vol % FBS and 0.1 vol % Triton X-100 at 37° C. for 30 min. The cells were then washed by PBS solution and stained by Hoechst 33342 at room temperature for 10 min. After that, the cells were washed three-times by PBS solution and imaged by confocal fluorescence microscopy.
EGF stimulation was carried out by pretreatment of A431 cells by EGF (100 ng/mL) for 20, 40 and 60 min, then washed by PBS and incubated with Peroxymycin-1 (1 μM) for 4 h.
For the study with L-NAME, A431 cells were pretreated with L-NAME (100 μM) for 25 min, then washed by PBS and incubated with EGF (100 ng/mL) for 40 min, followed by washing and incubation with Peroxymycin-1 (1 μM) for 4 h.
For the DPI experiment, the cells were pretreated with a mixture of DPI (5 μM) and EGF (100 ng/mL) for 40 min, followed by incubation with a mixture of DPI (5 μM) and Peroxymycin-1 (1 μM) for 4 h.
For the inhibition of H2O2 production by gp91 Tat peptide, the cells were pretreated with gp91 Tat peptide (100 μM) for 30 min, then incubated with a mixture of gp91 Tat peptide (100 μM) and Peroxymycin-1 (1 μM) for 4 h.
Confocal fluorescence cell imaging was performed with a Zeiss laser scanning microscope 710 with a 40× water-immersion objective lens using Zen 2009 software (Carl Zeiss). Hoechst 33342 was excited with a 405 nm diode laser, and emission was collected using a META detector between 450 and 500 nm. Alexa Fluor 488 was excited with 488 nm with an Ar laser, and emission was collected using a META detector between 500 and 625 nm. Alexa Fluor 647 was excited with a 633 nm HeNe laser, and emission was collected using a META detector between 638 and 647 nm. PBS solution was used as the imaging buffer for all the confocal experiments. Image analysis was performed using ImageJ. A region of interest (ROI) was created around a single cell, and cellular fluorescence intensity was measured. […]

[3] = LC-MS study of reaction of probe with GSH and other substrates; details: 25° C.; probe 0.3 mM, GSH 1.0 mM
Description: (§1) MilliQ water was used in all experiments unless otherwise stated. Reaction kinetics of the probes with species of interest and other substrates were investigated by LC-MS (Agilent Technology 6130, Quadrupole LC/MS) coupled with photodiode array for detection (X=275 nm). Confocal microscopy images were recorded on a Zeiss laser scanning microscope 710 with a 40× water-immersion objective lens using Zen 2009 software (Carl Zeiss).
(§2) Peroxymycin-1 and Ctrl-Peroxymycin-1 (0.3 mM), respectively, were dissolved in phosphate buffer (20 mM, pH 7.4)-methanol solution mixture (2:1, v/v) with 3 vol % DMSO and allowed to stand at room temperature. At predetermined time intervals, an aliquot of the solution mixture was taken for LC-MS analysis. Separation was achieved by gradient elution from 5-100% MeOH in water (constant 0.1 vol % formic acid) over 8 min, isocratic with 100% MeOH from 8 to 12 min and returned to initial conditions and equilibrated for 3 minutes. The LC chromatograms were recorded by monitoring absorption at 275 nm.

[4] = LC-MS study of reaction of probe with H2S and other substrates; details: 25° C.; probe 0.3 mM, H2S 1 mM
Description: as §1, §2

[5] = test system: HeLa cells; test: Confocal fluorescence imaging of HeLa cells treated with fluorescent H2O2 probe PF2; type: cell-based, human
Text: Human cervical epithelial carcinoma (HeLa), human epidermoid carcinoma (A-431) and human breast carcinoma (MDA-MB-231 and MDA-MB-468) were maintained in DMEM medium (high glucose) supplemented with GlutaMAX and 10 vol % FBS. Human breast carcinoma (MCF-7) was maintained in DMEM medium (high glucose) supplemented with GlutaMAX, 10 vol % FBS, 1 vol % non-essential amino acids and 1% sodium pyruvate. Human breast carcinoma (HS 578T) was maintained in DMEM medium (high glucose) supplemented with GlutaMAX, 10 vol % FBS, 1% sodium pyruvate and insulin (10 μg/mL). Human non-tumorigenic breast epithelial cells (MCF-10A) were maintained in DMEM/F12 (with L-glutamate, HEPES and phenol red) supplemented with 5 vol % horse serum, EGF (20 ng/mL), hydrocortisone ([…]), cholera toxin (100 ng/mL), insulin (10 μg/mL) and 1 vol % penicillin/streptomycin. […]
(§3) Confocal fluorescence cell imaging was performed with a Zeiss laser scanning microscope 710 with a 40× water-immersion objective lens using Zen 2009 software (Carl Zeiss). […] A region of interest (ROI) was created around a single cell, and cellular fluorescence intensity was measured. The reported cellular fluorescence intensity was determined by averaging the measured intensity of 5 different cells from at least 3 different images in triplicate experiments. […]

[6] = Stability of probes in phosphate buffer-methanol mixture by LC-MS; type: physicochemical
Description: as §1, §2

[7] = LC-MS study of reaction of probe with H2O2 and other ROS; details: 25° C.; probe 0.3 mM, H2O2 0.1 mM
Description: as §1, §2
For the study of the reaction with H2O2, Peroxymycin-1 and Ctrl-Peroxymycin-1 (0.3 mm), respectively, were dissolved in phosphate buffer (20 mM, pH 7.4)-methanol solution mixture (2:1, v/v) with 3 vol % DMSO. H2O2 was then added to the solution mixture (final concentration=0.1 mM), and the reaction mixture was allowed to stand at room temperature. […]

[8] = test system: panel of related cancer and non-tumorigenic breast cell lines; test: H2O2 profiling across a panel of cancer and non-tumorigenic breast cell lines; type: cell-based, human; details: 1 μM, 4 h; MDA-MB-231, HS 578T, MDA-MB-468, MCF-7, MCF-10A, HS 578Bst
Text: Human cervical epithelial carcinoma (HeLa), human epidermoid carcinoma (A-431) and human breast carcinoma (MDA-MB-231 and MDA-MB-468) were maintained in DMEM medium (high glucose) supplemented with GlutaMAX and 10 vol % FBS. Human breast carcinoma (MCF-7) was maintained in DMEM medium (high glucose) supplemented with GlutaMAX, 10 vol % FBS, 1 vol % non-essential amino acids and 1% sodium pyruvate. Human breast carcinoma (HS 578T) was maintained in DMEM medium (high glucose) supplemented with GlutaMAX, 10 vol % FBS, 1% sodium pyruvate and insulin (10 μg/mL). […]
Cells were incubated with the compound (1 μM) for indicated time intervals. […] After that, the cells were washed three-times by PBS solution and imaged by confocal fluorescence microscopy.
as §3

[9] = H2S 100 μM 30 min, then 1 μM compound 4 h

Structure (SMILES): COc1ccc(CC(NC(=O)OCCc2ccc(B3OC(C)(C)C(C)(C)O3)cc2)C(=O)NC2C(CO)OC(n3cnc4c(N(C)C)ncnc43)C2O)cc1 (stereo not shown) [Ctrl-Peroxymycin-1]
- change in fluorescence intensity with H2O2 pretreatment ([1]; then 1 μM compound 4 h): lack of signal
- change in fluorescence intensity with EGF stimulation [2]: no observable differences in immunofluorescence

Structure (SMILES): COc1ccc(CC(NC(=O)OCCSSCCOC(C)=O)C(=O)NC2C(CO)OC(n3cnc4c(N(C)C)ncnc43)C2O)cc1 (stereo not shown) [GSH-Puro-1]
- pseudo-first-order rate constant of the reaction with GSH [3]: 9.4e-05 s⁻¹
- relative fluorescence intensity compared to cells treated by puromycin ([1]; 1 μM, 4 h incubation): 69%
- relative fluorescence intensity compared to cells treated by puromycin ([1]; 1 μM, 6 h incubation): 79%
- change of immunofluorescence intensity with incubation time ([1]; 1 μM, HeLa cells): Time-dependent increase in immunofluorescence intensity
- fluorescence with BSO pretreatment compared to no pretreatment ([1]; BSO 1 mM 3 h, then probe 2 h): significantly weaker fluorescence
- immunofluorescence with GSH or lipoic acid pretreatment compared to no pretreatment ([1]; GSH 100 μM 24 h or lipoic acid 1.8 mM 24 h, then probe 2 h): stronger immunofluorescence

Structure (SMILES): COc1ccc(CC(NC(=O)OCc2ccc(N=[N+]=[N-])cc2)C(=O)NC2C(CO)OC(n3cnc4c(N(C)C)ncnc43)C2O)cc1 (stereo not shown) [H2S-Puro-1]
- pseudo-first-order rate constant of the reaction with H2S [4]: 6.3e-05 s⁻¹
- change in immunofluorescence intensity with cysteine or GSH incubation [1]: significant increase in immunofluorescence intensity
- relative fluorescence intensity compared to cells treated by puromycin ([1]; 1 μM, 4 h incubation): around 5%
- change of immunofluorescence intensity with incubation time ([1]; 1 μM, HeLa cells): time-dependent increase in green fluorescence intensity
- immunofluorescence with H2S pretreatment relative to no pretreatment [1, 9]: 1.4 fold

Structure (SMILES): COc1ccc2c(c1)Oc1cc(B3OC(C)(C)C(C)(C)O3)ccc1C21OC(=O)c2ccccc21 (stereo not shown) [PF2, Peroxyfluor-2]
- cellular fluorescence (basal H2O2) ([5]; 10 μM for 0.5, 4 and 6 h, washed): negligible fluorescence
- change in signal in response to Nox2 inhibition by gp91 Tat peptide ([5]; gp91 Tat peptide 100 μM 30 min, PF2 10 μM 4 h): failed to show statistically significant decreases in signal

Structure (SMILES): COc1ccc(CC(NC(=O)OCc2ccc(B3OC(C)(C)C(C)(C)O3)cc2)C(=O)NC2C(CO)OC(n3cnc4c(N(C)C)ncnc43)C2O)cc1 (stereo not shown) [Peroxymycin-1]
- stability in aqueous solution buffered to physiological pH ([6]; 0.3 mM probe, phosphate buffer (20 mM, pH 7.4)-methanol (2:1, v/v), 3 vol % DMSO, room temperature): good stability
- puromycin generation in the absence of H2O2 ([6]; control experiment, LC-MS): negligible puromycin generation
- pseudo-first-order rate constant of the reaction with H2O2 [7]: 0.001 s⁻¹
- change in fluorescence intensity with paraquat co-incubation [1]: significant increases in fluorescence intensity
- fluorescence intensity with H2O2 co-incubation relative to cells treated with probe only ([1]; 1 μM probe 4 h, H2O2 50 μM co-incubation for 2 h): 4.3 times
- relative fluorescence intensity compared to cells treated by puromycin ([1]; 1 μM, 4 h incubation): 30.5%
- green immunofluorescence at 0.5 h ([1]; 1 μM, HeLa cells): no significant green fluorescence
- change of immunofluorescence intensity with incubation time ([1]; 1 μM, HeLa cells): increases in fluorescence intensity
- change in fluorescence intensity with H2O2 pretreatment ([1]; then 1 μM compound 4 h): statistically significant increase in fluorescence intensity
- change in fluorescence intensity with EGF stimulation [2]: statistically significant increase in fluorescence intensity
- change in immunofluorescent signal with DPI incubation ([2]; EGF 100 ng/mL 40 min, DPI 5 μM, probe 1 μM 4 h): statistically significant decrease in immunofluorescent signal
- effect of L-NAME on EGF-stimulated immunofluorescence ([2]; L-NAME 100 μM 25 min, EGF 100 ng/mL 40 min, probe 1 μM 4 h): does not block EGF-stimulated increases
- immunofluorescence with gp91 Tat peptide compared to controls without inhibitor ([2]; gp91 Tat peptide 100 μM 30 min, probe 1 μM 4 h): markedly lower levels
- order of fluorescence intensities normalized to puromycin-treated cells [8]: metastatic/invasive cancer cells>cancer cells>non-tumorigenic cells

Structure (SMILES): COc1ccc(C[C@H](N)C(=O)N[C@H]2[C@@H](O)[C@H](n3cnc4c(N(C)C)ncnc43)O[C@@H]2CO)cc1 [puromycin]
- change in immunofluorescence intensity with cysteine or GSH incubation [1]: negligible change in fluorescence intensity
- change in fluorescence intensity with paraquat co-incubation [1]: no significant changes in fluorescence
- time of saturation of green fluorescence ([1]; 1 μM, HeLa cells): 1 h
- green immunofluorescence at 0.5 h ([1]; 1 μM, HeLa cells): strong green fluorescence
- change in fluorescence intensity with H2O2 pretreatment ([1]; then 1 μM compound 4 h): lack of observed changes in fluorescence intensity
- change in immunofluorescence intensity by H2S pretreatment [1, 9]: No significant change in immunofluorescence intensity
- change in immunofluorescence intensity with GSH, lipoic acid or BSO pretreatment ([1]; puromycin control): no significant change in immunofluorescence intensity
- change in fluorescence intensity with EGF stimulation [2]: do not show any significant changes in fluorescence intensity
